# From patent US7335665B2, “Spirocyclic piperidines as MCH1 antagonists and uses thereof” (H - Lundbeck A/S, priority 2003, dated 2008)
# Target: T1, rat MCH1 receptor (Rattus norvegicus, UniProt P97639)
# T1 construct: expressed in transfected cells; host or cells: Human embryonic kidney Peak rapid 293 cells (Peakr293), transient, calcium phosphate; membranes
# Assay: Radioligand binding assay at cloned rat MCH1 receptor ([3H]Compound A displacement)
# Conditions: KI, cloned rat MCH1, membranes of transfected Peakr293 cells, 0.08 nM [3H]Compound A, 25° C., 90 minutes
# Procedure: For binding assays, pellets of transfected cells are suspended in ice-cold buffer (20 mM Tris.HCl, 5 mM EDTA, pH 7.4) and homogenized by sonication for 7 sec. The cell lysates are centrifuged at 200×g for 5 min at 4° C. The supernatants are then centrifuged at 40,000×g for 20 min at 4° C. The resulting pellets are washed once in the homogenization buffer and suspended in binding buffer (see methods for radioligand binding). Protein concentrations are determined by the method of Bradford (1976) using bovine serum albumin as the standard. Binding assays are usually performed immediately, however it is possible to prepare membranes in batch and store frozen in liquid nitrogen for future use.
# Radioligand binding assays for the rat MCH1 receptor were carried out using plasmid pcDNA3.1-rMCH1-f (ATCC Patent Deposit Designation No. PTA-3505). Plasmid pcDNA3.1-rMCH1-f comprises the regulatory elements necessary for expression of DNA in a mammalian cell operatively linked to DNA encoding the rat MCH1 receptor so as to permit expression thereof. Plasmid pcDNA3.1-rMCH1-f was deposited on Jul. 5, 2001, with the American Type Culture Collection (ATCC), 12301 Parklawn Drive, Rockville, Md. 20852, U.S.A. under the provisions of the Budapest Treaty for the International Recognition of the Deposit of Microorganisms for the Purposes of Patent Procedure and was accorded ATCC Patent Deposit Designation No. PTA-3505.
# Human embryonic kidney Peak rapid 293 cells (Peakr293 cells) were transiently transfected with DNA encoding the MCH1 receptor utilizing the calcium phosphate method and cell membranes were prepared as described above. Binding experiments with membranes from Peakr293 cells transfected with the rat MCH1 receptor were performed with 0.08 nM [^3H]Compound A (custom labeled by Amersham) (the synthesis of Compound A is described in detail below) using an incubation buffer consisting of 50 mM Tris pH 7.4, 10 mM MgCl2, 0.16 mM PMSF, 1 mM 1,10 phenantroline and 0.2% BSA. Binding was performed at 25° C. for 90 minutes. Incubations were terminated by rapid vacuum filtration over GF/C glass fiber filters, presoaked in 5% PEI using […] Tris pH 7.4 as wash buffer. In all experiments, nonspecific binding is defined using […] Compound A.
# The compounds described above were assayed using cloned rat MCH1.
# T1 sequence (P97639 whole entry): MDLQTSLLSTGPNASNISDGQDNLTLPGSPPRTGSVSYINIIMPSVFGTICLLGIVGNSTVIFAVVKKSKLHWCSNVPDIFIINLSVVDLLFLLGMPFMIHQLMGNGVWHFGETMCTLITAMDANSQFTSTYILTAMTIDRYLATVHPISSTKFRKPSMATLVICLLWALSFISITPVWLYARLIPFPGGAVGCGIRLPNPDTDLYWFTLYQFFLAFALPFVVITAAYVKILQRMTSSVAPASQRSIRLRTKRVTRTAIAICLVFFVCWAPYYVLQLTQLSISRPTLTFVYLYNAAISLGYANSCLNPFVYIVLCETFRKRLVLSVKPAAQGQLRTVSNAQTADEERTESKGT
row,Compound,Ki
1,"O=C(NCCCN1CCC2(CCc3ccccc32)CC1)C1(c2ccc(Cl)cc2)CCC1 [Example 59, [1-(4-CHLOROPHENYL)CYCLOBUTYL]-N-(3-(SPIRO[INDANE-1,4′-PIPERIDINE]-10-YL)PROPYL)CARBOXAMIDE]",175 nM
2,"CC(C(=O)NCCCN1CCC2(C=Cc3ccccc32)CC1)(c1ccccc1)c1ccccc1 [Example 63, 2,2-DIPHENYL-N-(3-(SPIRO[INDENE-1,4′-PIPERIDINE]-10-YL)PROPYL)PROPANAMIDE]",46 nM
3,"O=C(NCCCN1CCC2(C=Cc3ccccc32)CC1)C(c1ccccc1)(c1ccccc1)c1ccccc1 [Example 64, 2,2,2-TRIPHENYL-N-(3-(SPIRO[INDENE-1,4′-PIPERIDINE]-10-YL)PROPYL)ACETAMIDE]",36 nM
4,"CC(C)(C(=O)NCCCN1CCC2(C=Cc3ccccc32)CC1)c1ccc(Cl)cc1 [Example 65, 2-(4-CHLOROPHENYL)-2-METHYL-N-(3-(SPIRO[INDENE-1,4′-PIPERIDINE]-10-YL)PROPYL)PROPANAMIDE]",78 nM
5,"O=C(NCCCN1CCC2(C=Cc3ccccc32)CC1)C(c1ccc(F)cc1)c1ccc(F)cc1 [Example 67, 2,2-BIS(4-FLUOROPHENYL)-N-(3-(SPIRO[INDENE-1,4′-PIPERIDINE]-10-YL)PROPYL)ACETAMIDE]",2.4 nM
6,"O=C(NCCCN1CCC2(CC1)OCc1ccccc12)C(c1ccccc1)c1ccccc1 [Example 76, 2,2-DIPHENYL-N-(3-(SPIRO[1,3-DIHYDROISOBENZOFURAN-1,4′-PIPERIDINE]-10-YL)PROPYL)ACETAMIDE]",20.6 nM
7,"O=C(NCCCN1CCC2(CC1)OCc1ccccc12)C(c1ccccc1)(c1ccccc1)c1ccccc1 [Example 77, 2,2,2-TRIPHENYL-N-(3-(SPIRO[1,3-DIHYDROISOBENZOFURAN-1,4′-PIPERIDINE]-10-YL)PROPYL)ACETAMIDE]",151 nM
8,"O=C(NCCCN1CCC2(CC1)OCc1ccccc12)C1(c2ccc(F)cc2)CCCC1 [Example 79, [(4-FLUOROPHENYL)CYCLOPENTYL]-N-(3-(SPIRO[1,3-DIHYDROISOBENZOFURAN-1,4′-PIPERIDINE]-10-YL)PROPYL)CARBOXAMIDE]",514 nM
9,"O=C(NCCCN1CCC2(CC1)OCc1ccccc12)C1(c2ccc(F)cc2)CCCCC1 [Example 80, [(4-FLUOROPHENYL)CYCLOHEXYL]-N-(3-(SPIRO[1,3-DIHYDROISOBENZOFURAN-1,4′-PIPERIDINE]-10-YL)PROPYL)CARBOXAMIDE]",174 nM
10,"CC(C(=O)NCCCN1CCC2(CC1)OCc1ccccc12)c1ccc(F)cc1 (centres unmarked) [Example 82, 2-(4-FLUOROPHENYL)-N-(3-(SPIRO[1,3-DIHYDROISOBENZOFURAN-1,4′-PIPERIDINE]-10-YL) PROPYL) PROPANAMIDE]",679 nM
11,"O=C(NCCCN1CCC2(CC1)OCc1ccccc12)C(c1ccc(F)cc1)c1ccc(F)cc1 [Example 84, 2,2-BIS(4-FLUOROPHENYL)-N-(3-(SPIRO[1,3-DIHYDROISOBENZOFURAN-1,4′-PIPERIDINE]-10-YL)PROPYL)ACETAMIDE]",4.9 nM
12,"O=C(Cc1ccc(F)c(F)c1)NCCCN1CCC2(CC1)OCc1ccccc12 [Example 86, 2-(3,4-DIFLUOROPHENYL)-N-(3-(SPIRO[1,3-DIHYDROISOBENZOFURAN-1,4′-PIPERIDINE]-10-YL)PROPYL)ACETAMIDE]",379 nM

# Same assay, conditions: cloned rat MCH1, membranes of transfected Peakr293 cells, 0.08 nM [3H]Compound A, 25° C., 90 minutes; read-out: KI
row,Compound,Ki
1,"O=C(NCCCN1CCC2(CCc3ccccc32)CC1)C(c1ccc(Cl)cc1)c1ccc(Cl)cc1 [Example 55, 2,2-BIS(4-CHLOROPHENYL)-N-(3-(SPIRO[INDANE-1,4′-PIPERIDINE]-10-YL)PROPYL)ACETAMIDE]",8.6 nM
2,"O=C(NCCCN1CCC2(CCc3ccccc32)CC1)C1(c2ccc(F)cc2)CCCCC1 [Example 56, [1-(4-FLUOROPHENYL)CYCLOHEXYL]-N-(3-(SPIRO[INDANE-1,4′-PIPERIDINE]-10-YL)PROPYL)CARBOXAMIDE]",108 nM
3,"O=C(NCCCN1CCC2(CCc3ccccc32)CC1)C(c1ccc(F)cc1)c1ccc(F)cc1 [Example 57, 2,2-BIS(4-FLUOROPHENYL)-N-(3-(SPIRO[INDANE-1,4′-PIPERIDINE]-10-YL)PROPYL)ACETAMIDE]",4.2 nM
4,"O=C(NCCCN1CCC2(CCc3ccccc32)CC1)C1(c2ccc(Cl)cc2)CC1 [Example 58, [1-(4-CHLOROPHENYL)CYCLOPROPYL]-N-(3-(SPIRO[INDANE-1,4′-PIPERIDINE]-10-YL)PROPYL)CARBOXAMIDE]",150 nM
5,"O=C(NCCCCN1CCC2(CCc3ccccc32)CC1)c1ccc(F)c(F)c1 [Example 60, (3,4-DIFLUOROPHENYL)-N-(4-(SPIRO[INDANE-1,4′-PIPERIDINE]-10-YL)BUTYL)CARBOXAMIDE]",42.3 nM
6,"O=C(NCCCN1CCC2(CC1)Cc1ccccc1C2)C(c1ccccc1)c1ccccc1 [Example 61, 2,2-DIPHENYL-N-(3-(SPIRO[INDANE-2,4′-PIPERIDINE]-10-YL)PROPYL)ACETAMIDE]",49 nM
7,"Cc1ccc(C(C(=O)NCCCN2CCC3(C=Cc4ccccc43)CC2)c2ccc(C)cc2)cc1 [Example 62, 2,2-BIS(4-METHYL)PHENYL)-N-(3-(SPIRO[INDENE-1,4′-PIPERIDINE]-10-YL)PROPYL)ACETAMIDE]",26 nM
8,"CC(C(=O)NCCCN1CCC2(C=Cc3ccccc32)CC1)c1ccc(Cl)cc1 (centres unmarked) [Example 66, 2-(4-CHLOROPHENYL)-N-(3-(SPIRO[INDENE-1,4′-PIPERIDINE]-10-YL)PROPYL)PROPANAMIDE]",140 nM
9,"O=C(NCCCN1CCC2(C=Cc3ccccc32)CC1)C(c1ccc(Cl)cc1)c1ccc(Cl)cc1 [Example 68, 2,2-BIS(4-CHLOROPHENYL)-N-(3-(SPIRO[INDENE-1,4′-PIPERIDINE]-10-YL)PROPYL)ACETAMIDE]",5.8 nM
10,"O=C(NCCCN1CCC2(C=Cc3ccccc32)CC1)C1(c2ccc(Cl)cc2)CCCC1 [Example 69, [(4-CHLOROPHENYL)CYCLOPENTYL]-N-(3-(SPIRO[INDENE-1,4′-PIPERIDINE]-10-YL)PROPYL)CARBOXAMIDE]",104 nM
11,"O=C(NCCCN1CCC2(C=Cc3ccccc32)CC1)C1(c2ccc(F)cc2)CCCC1 [Example 70, [(4-FLUOROPHENYL)CYCLOPENTYL]-N-(3-(SPIRO[INDENE-1,4′-PIPERIDINE]-10-YL)PROPYL)CARBOXAMIDE]",203 nM
12,"O=C(NCCCN1CCC2(C=Cc3ccccc32)CC1)C1(c2ccc(Cl)cc2)CCCCC1 [Example 71, [(4-CHLOROPHENYL)CYCLOHEXYL]-N-(3-(SPIRO[INDENE-1,4′-PIPERIDINE]-10-YL)PROPYL)CARBOXAMIDE]",71 nM
13,"O=C(NCCCN1CCC2(C=Cc3ccccc32)CC1)C1(c2ccc(F)cc2)CCCCC1 [Example 72, [(4-FLUOROPHENYL)CYCLOHEXYL]-N-(3-(SPIRO[INDENE-1,4′-PIPERIDINE]-10-YL)PROPYL)CARBOXAMIDE]",131 nM
14,"O=C(NCCCN1CCC2(C=Cc3ccccc32)CC1)C1(c2ccc(Cl)cc2)CC1 [Example 73, [(4-CHLOROPHENYL)CYCLOPROPYL]-N-(3-(SPIRO[INDENE-1,4′-PIPERIDINE]-10-YL)PROPYL)CARBOXAMIDE]",239 nM
15,"O=C(NCCCN1CCC2(C=Cc3ccccc32)CC1)C1(c2ccc(Cl)cc2)CCC1 [Example 74, [(4-CHLOROPHENYL)CYCLOBUTYL]-N-(3-(SPIRO[INDENE-1,4′-PIPERIDINE]-10-YL)PROPYL)CARBOXAMIDE]",185 nM
16,"Cc1ccc(C2(C(=O)NCCCN3CCC4(CC3)OCc3ccccc34)CCCC2)cc1 [Example 75, [(4-METHYL)PHENYL)CYCLOPENTYL]-N-(3-(SPIRO[1,3-DIHYDROISOBENZOFURAN-1,4′-PIPERIDINE]-10-YL)PROPYL)CARBOXAMIDE]",700 nM
17,"Cc1ccc(C(C(=O)NCCCN2CCC3(CC2)OCc2ccccc23)c2ccc(C)cc2)cc1 [Example 78, 2,2-BIS(4-METHYL)PHENYL)-N-(3-(SPIRO[1,3-DIHYDROISOBENZOFURAN-1,4′-PIPERIDINE]-10-YL)PROPYL)ACETAMIDE]",19.7 nM
18,"CC(C)(C(=O)NCCCN1CCC2(CC1)OCc1ccccc12)c1ccc(Cl)cc1 [Example 81, 2-(4-CHLOROPHENYL)-2-METHYL-N-(3-(SPIRO[1,3-DIHYDROISOBENZOFURAN-1,4′-PIPERIDINE]-10-YL)PROPYL)PROPANAMIDE]",185 nM
19,"CC(C(=O)NCCCN1CCC2(CC1)OCc1ccccc12)c1ccc(Cl)cc1 (centres unmarked) [Example 83, 2-(4-CHLOROPHENYL)-N-(3-(SPIRO[1,3-DIHYDROISOBENZOFURAN-1,4′-PIPERIDINE]-10-YL)PROPYL)PROPANAMIDE]",557 nM
20,"O=C(NCCCN1CCC2(CC1)OCc1ccccc12)C1(c2ccc(Cl)cc2)CCCC1 [Example 85, [(4-CHLOROPHENYL)CYCLOPENTYL]-N-(3-(SPIRO[1,3-DIHYDROISOBENZOFURAN-1,4′-PIPERIDINE]-10-YL)PROPYL)CARBOXAMIDE]",183 nM
